From US20150342954A1, “2-BENZYL, 3-(PYRIMIDIN-2-YL) SUBSTITUTED PYRAZOLES USEFUL AS SGC STIMULATORS” (IRONWOOD PHARMACEUTICALS, INC., priority 2011, published 2015)

Experiments:
[1] = target: T1, Human soluble guanylate cyclase enzyme (hsGC) (Homo sapiens, UniProt Q02108+Q02153); experiment: Purified human sGC enzyme activity assay (without SNP); format: biochemical; settings: compound at 30 μM, absence of SNP; fold over DMSO control; Table 5A
T1 construct: purchased Enzo Inc. ALX-201-177
T1 sequence (Q02153 1-619): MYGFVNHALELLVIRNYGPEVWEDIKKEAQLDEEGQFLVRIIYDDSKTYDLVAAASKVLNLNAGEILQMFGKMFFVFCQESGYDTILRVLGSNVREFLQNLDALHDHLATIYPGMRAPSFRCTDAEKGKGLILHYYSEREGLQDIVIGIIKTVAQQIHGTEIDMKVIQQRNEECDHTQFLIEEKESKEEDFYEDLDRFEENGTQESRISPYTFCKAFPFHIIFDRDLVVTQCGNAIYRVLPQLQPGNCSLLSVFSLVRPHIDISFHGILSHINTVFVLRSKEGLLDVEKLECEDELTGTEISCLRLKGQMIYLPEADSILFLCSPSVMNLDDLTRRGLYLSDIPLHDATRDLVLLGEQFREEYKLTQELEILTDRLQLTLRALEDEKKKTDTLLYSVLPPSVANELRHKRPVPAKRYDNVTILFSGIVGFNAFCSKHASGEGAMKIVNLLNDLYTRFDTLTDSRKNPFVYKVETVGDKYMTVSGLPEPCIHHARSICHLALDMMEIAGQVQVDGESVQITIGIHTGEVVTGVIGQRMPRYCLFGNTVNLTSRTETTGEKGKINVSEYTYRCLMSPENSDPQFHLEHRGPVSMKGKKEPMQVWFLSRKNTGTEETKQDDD
T1 sequence (Q02108 1-690): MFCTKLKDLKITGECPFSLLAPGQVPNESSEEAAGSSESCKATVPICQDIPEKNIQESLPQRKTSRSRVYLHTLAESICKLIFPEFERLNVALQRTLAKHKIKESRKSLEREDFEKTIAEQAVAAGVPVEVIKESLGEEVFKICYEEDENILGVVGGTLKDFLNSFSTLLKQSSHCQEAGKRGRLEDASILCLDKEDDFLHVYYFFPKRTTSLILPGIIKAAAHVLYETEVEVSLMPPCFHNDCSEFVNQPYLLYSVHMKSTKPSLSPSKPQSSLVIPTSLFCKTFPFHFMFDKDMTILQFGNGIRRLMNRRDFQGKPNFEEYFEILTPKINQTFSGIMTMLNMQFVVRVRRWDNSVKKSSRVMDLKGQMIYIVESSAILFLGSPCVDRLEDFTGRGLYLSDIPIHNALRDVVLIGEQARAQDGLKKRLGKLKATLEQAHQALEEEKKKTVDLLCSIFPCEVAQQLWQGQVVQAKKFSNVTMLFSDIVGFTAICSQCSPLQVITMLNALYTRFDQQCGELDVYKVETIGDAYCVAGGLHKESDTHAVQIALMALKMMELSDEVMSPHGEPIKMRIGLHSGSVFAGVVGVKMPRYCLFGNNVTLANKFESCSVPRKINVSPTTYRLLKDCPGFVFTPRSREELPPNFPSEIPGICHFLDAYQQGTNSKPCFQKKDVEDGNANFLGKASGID
In short: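 Purified human sGC (5 ng) in 0.1 M Tris pH 8.0, 2 mM DTT, 2 mM MgCl2, 300 μM GTP, 1 mM IBMX, with compound at 10 or 30 μM final, 30 min at 37° C.; methanol-stopped. cGMP quantified against a standard curve; specific activity expressed as fold-change over DMSO control.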

[2] = target: T1, Human soluble guanylate cyclase enzyme (hsGC); experiment: Purified human sGC enzyme synergy assay in the presence of 1 μM sodium nitroprusside (SNP); format: biochemical; settings: compound at 30 μM, presence of 1 μM SNP; Table 5A
In short: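 Purified hsGC (5 ng) incubated 30 min at 37 °C with compound (10 or 30 μM final) in Tris pH 8.0, 300 μM GTP, 1 mM IBMX, 2 mM MgCl2, with or without 1 μM SNP; stopped with cold methanol. cGMP quantified against standard curve; specific activity expressed as fold-change over DMSO control.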

Thoracic aortic rings = experiment: Alternative thoracic aortic rings assay (Example 5; original resting tension as 100% inhibition); settings: rat thoracic aortic rings contracted with phenylephrine; for Aortic Ring Percent Relaxation at 1 μM: compound at 1 μM; for Aortic Ring Percent Relaxation at 3 μM: compound at 3 μM; for Aortic Ring Percent Relaxation at 10 μM: compound at 10 μM; for EC50: read-out: Aortic Ring EC50
Description: Thoracic aortic rings were dissected from anesthetized (isoflurane) male Sprague-Dawley rats weighing 275-299 g. Tissues were immediately transferred to ice-cold Krebs-Henseleit solution, which had been aerated with 95% 02 and 5% CO2 for 30 minutes. Following removal of connective tissue, aortic sections were cut into 4 rings (˜2 mm each) and suspended on 2 L-shaped hooks, with one hook fixed at the bottom of the tissue bath (Schuler Organ Bath, Harvard Apparatus) and the other connected to a force transducer (F30 Force Transducer, Harvard Apparatus). Baths contained Krebs Henseleit solution (10 mL) heated to 37° C. and aerated with 95% 02 and 5% CO2. Rings were brought to an initial tension of 0.3-0.5 g and gradually raised to a resting tension of 1.0 g over 60 minutes. Rings were rinsed with Krebs Henseleit solution (heated to 37° C. and aerated with 95% 02 and 5% CO2) at 15 minute intervals until a stable baseline was obtained. Rings were considered to be stable after a resting tension of 1.0 g was maintained (for approximately 10 minutes) without need for adjustment. Rings were then contracted with 100 ng/mL phenylephrine by adding 100 μL of a 10 μg/mL phenylephrine stock solution. Tissues achieving a stable contraction were then treated in a cumulative, dose dependent manner with test compounds prepared in dimethylsulfoxide (DMSO). In some cases, tissues were rinsed three times over a 5 minute period with Krebs-Heinseleit's solution (heated to 37° C. and aerated with 95% 02 and 5% CO2), allowed to stabilize at baseline, and then used for characterization of other test articles or DMSO effects. All data were collected using the HSE-ACAD software provided by Harvard Apparatus. […] EC50 values were calculated from concentration-response curves generated with GraphPad Prism Software.
Biological Activity Measurement by the Thoracic Aortic Rings Assay
The biological data for some of a compound of Table I, in comparison with the known compound, BAY 41-2272, as the reference compound, determined by the thoracic aorta ring assay of Example 5 are presented in Table 6 below.

Enzyme Activity (increase at 30 μM without SNP) [1]	Enzyme Activity (increase at 30 μM with SNP) [2]	EC50 (Thoracic aortic rings)	Structure (SMILES)	Aortic Ring Percent Relaxation at 1 μM (Thoracic aortic rings)	Aortic Ring Percent Relaxation at 3 μM (Thoracic aortic rings)	Aortic Ring Percent Relaxation at 10 μM (Thoracic aortic rings)
C (5 to <10 fold increase)	D (10 or <20 fold increase)	< 2 µM	Nc1nc(-c2cc(-c3ccon3)n(Cc3cccc(F)c3F)n2)ncc1NC(=O)C1(C(F)(F)F)CC1 [Compound 40]	G (100 to <120%)	G (100 to <120%)	G (100 to <120%)
D (10 or <20 fold increase)	E (20 to 30 fold increase)	< 2 µM	Nc1nc(-c2cc(-c3ccon3)n(Cc3ccccc3F)n2)ncc1NC(=O)C1(F)CC1 [Compound 35]	G (100 to <120%)	H (higher than 120%)	H (higher than 120%)
D (10 or <20 fold increase)	D (10 or <20 fold increase)	< 2 µM	Nc1nc(-c2cc(-c3ccon3)n(Cc3ccccc3F)n2)ncc1NC(=O)C1(c2ccccc2)CC1 [Compound 27]	F (80 to <100%)	G (100 to <120%)	G (100 to <120%)
